Assay results published in the CheMixHub viscosity set.
Several values for one entry are separate records, joined by “and”; a condition that tells them apart may be missing. Equal values may be shown once.

Test: xn = mol fraction of the nth substance listed

C=CC#N + ClC(Cl)(Cl)Cl
viscosity [mPa·s], 101 kPa
Details | 293.15 K | 298.15 K | 303.15 K | 313.15 K | 323.15 K
x1 = 0.007 | 0.988 | 0.911 | 0.847 | 0.749 | 0.671
x1 = 0.028 | 0.979 | 0.903 | 0.841 | 0.772 | 0.695
x1 = 0.126 | 0.853 | 0.783 | 0.721 | 0.661 | 0.616

C[N+](CCO)(CCO)CCO.[Cl-] + NC(N)=O
100 kPa, x1 = 0.5
Details | viscosity [mPa·s]
293.15 K | 6026
298.15 K | 3662
303.15 K | 2352
308.15 K | 1540
313.15 K | 1026
318.15 K | 717
323.15 K | 505

CC(=O)[O-].CCCC[NH3+] + O
Details | viscosity [mPa·s]
293.15 K, 101 kPa, x1 = 0.4013 | 53.35

CC(C)[C@H](N)C(=O)O + O
101 kPa
Details | viscosity
293.15 K, x1 = 0.005375 | 1.137 mPa·s
293.15 K, x1 = 0.007154 | 1.185 mPa·s
293.15 K, x1 = 0.008925 | 1.236 mPa·s
298.15 K, x1 = 0.0001 | 0.9194 mPa·s and 0.9194 mPa·s
298.15 K, x1 = 0.0004318 | 0.9217 mPa·s and 0.9217 mPa·s
298.15 K, x1 = 0.00045 | 0.8955 mPa·s
298.15 K, x1 = 0.0006308 | 0.9343 mPa·s and 0.9343 mPa·s
298.15 K, x1 = 0.0009 | 0.9038 mPa·s
298.15 K, x1 = 0.001048 | 0.9493 mPa·s and 0.9493 mPa·s
298.15 K, x1 = 0.00135 | 0.9129 mPa·s
298.15 K, x1 = 0.001416 | 0.9595 mPa·s and 0.9595 mPa·s
298.15 K, x1 = 0.001787 | 0.9689 mPa·s and 0.9689 mPa·s
298.15 K, x1 = 0.0018 | 0.9222 mPa·s
298.15 K, x1 = 0.002245 | 0.9318 mPa·s
298.15 K, x1 = 0.002695 | 0.9413 mPa·s
298.15 K, x1 = 0.003711 | 0.9967 mPa·s and 0.9967 mPa·s
298.15 K, x1 = 0.005362 | 1.026 mPa·s and 1.026 mPa·s
298.15 K, x1 = 0.007185 | 1.05 mPa·s and 1.05 mPa·s
303.15 K, x1 = 0.0004 | 0.803 mPa·s
303.15 K, x1 = 0.00045 | 0.8023 mPa·s
303.15 K, x1 = 0.0007 | 0.808 mPa·s
303.15 K, x1 = 0.0009 | 0.8101 mPa·s
303.15 K, x1 = 0.001 | 0.814 mPa·s and 0.821 mPa·s
303.15 K, x1 = 0.00135 | 0.8187 mPa·s
303.15 K, x1 = 0.0018 | 0.8274 mPa·s
303.15 K, x1 = 0.002245 | 0.8364 mPa·s
303.15 K, x1 = 0.002695 | 0.8456 mPa·s
303.15 K, x1 = 0.003592 | 0.861 mPa·s
303.15 K, x1 = 0.005375 | 0.8951 mPa·s
303.15 K, x1 = 0.007154 | 0.9297 mPa·s
303.15 K, x1 = 0.008925 | 0.9658 mPa·s
308.15 K, x1 = 0.0001 | 0.7889 mPa·s and 0.7889 mPa·s
308.15 K, x1 = 0.0004318 | 0.7978 mPa·s and 0.7978 mPa·s
308.15 K, x1 = 0.00045 | 0.7239 mPa·s
308.15 K, x1 = 0.0006308 | 0.8045 mPa·s and 0.8045 mPa·s
308.15 K, x1 = 0.001048 | 0.8147 mPa·s and 0.8147 mPa·s
308.15 K, x1 = 0.00135 | 0.7396 mPa·s
308.15 K, x1 = 0.001416 | 0.8249 mPa·s and 0.8249 mPa·s
308.15 K, x1 = 0.001787 | 0.8389 mPa·s and 0.8389 mPa·s
308.15 K, x1 = 0.0018 | 0.7478 mPa·s
308.15 K, x1 = 0.002245 | 0.7561 mPa·s
308.15 K, x1 = 0.002695 | 0.7648 mPa·s
308.15 K, x1 = 0.003711 | 0.8751 mPa·s and 0.8751 mPa·s
308.15 K, x1 = 0.005362 | 0.9003 mPa·s and 0.9003 mPa·s
308.15 K, x1 = 0.007185 | 0.9207 mPa·s and 0.9207 mPa·s
313.15 K, x1 = 0.00045 | 0.6573 mPa·s
313.15 K, x1 = 0.0009 | 0.6645 mPa·s
313.15 K, x1 = 0.00135 | 0.6722 mPa·s
313.15 K, x1 = 0.0018 | 0.6799 mPa·s
313.15 K, x1 = 0.001804 | 0.6773 mPa·s
313.15 K, x1 = 0.002245 | 0.6878 mPa·s
313.15 K, x1 = 0.002695 | 0.696 mPa·s
313.15 K, x1 = 0.003592 | 0.7008 mPa·s
313.15 K, x1 = 0.005375 | 0.7269 mPa·s
313.15 K, x1 = 0.007154 | 0.752 mPa·s
318.15 K, x1 = 0.0001 | 0.6823 mPa·s and 0.6823 mPa·s
318.15 K, x1 = 0.0004318 | 0.6985 mPa·s and 0.6985 mPa·s
318.15 K, x1 = 0.00045 | 0.6017 mPa·s
318.15 K, x1 = 0.0006308 | 0.7009 mPa·s and 0.7009 mPa·s
318.15 K, x1 = 0.001048 | 0.7128 mPa·s and 0.7128 mPa·s
318.15 K, x1 = 0.00135 | 0.6159 mPa·s
318.15 K, x1 = 0.001416 | 0.7308 mPa·s and 0.7308 mPa·s
318.15 K, x1 = 0.001787 | 0.7418 mPa·s and 0.7418 mPa·s
318.15 K, x1 = 0.0018 | 0.6233 mPa·s
318.15 K, x1 = 0.002245 | 0.631 mPa·s
318.15 K, x1 = 0.002695 | 0.6386 mPa·s
318.15 K, x1 = 0.003711 | 0.7743 mPa·s and 0.7743 mPa·s
318.15 K, x1 = 0.005362 | 0.7995 mPa·s and 0.7995 mPa·s
318.15 K, x1 = 0.007185 | 0.8105 mPa·s and 0.8105 mPa·s
323.15 K, x1 = 0.001804 | 0.5656 mPa·s
323.15 K, x1 = 0.003592 | 0.5841 mPa·s
323.15 K, x1 = 0.008925 | 0.6454 mPa·s
